PubChem BioAssay (NCI)
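In this assay, cells in 96-well plates receive the compound at five concentrations for 48 hours. Endpoints are linearly interpolated between the surrounding concentrations. Definition used: TGI = concentration required for complete inhibition of growth.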

Columns and labels:
Experiment in all cases: NCI tumour cell line growth inhibition, 48 h
786-0 renal = tested on: 786-0 renal
NCI/ADR-RES ovarian = tested on: NCI/ADR-RES ovarian
T-47D breast = tested on: T-47D breast
TK-10 renal = tested on: TK-10 renal
MDA-MB-231 breast = tested on: MDA-MB-231 breast
HCC-2998 colon = tested on: HCC-2998 colon
CAKI-1 renal = tested on: CAKI-1 renal
SW-620 colon = tested on: SW-620 colon
RXF 393 renal = tested on: RXF 393 renal
KM12 colon = tested on: KM12 colon
IGROV1 ovarian = tested on: IGROV1 ovarian
NCI-H522 lung = tested on: NCI-H522 lung
SF-268 CNS = tested on: SF-268 CNS
SNB-75 CNS = tested on: SNB-75 CNS
HOP-62 NSCLC = tested on: HOP-62 NSCLC
ACHN renal = tested on: ACHN renal
OVCAR-8 ovarian = tested on: OVCAR-8 ovarian
OVCAR-5 ovarian = tested on: OVCAR-5 ovarian
SK-MEL-28 melanoma = tested on: SK-MEL-28 melanoma
MCF7 breast = tested on: MCF7 breast
SNB-19 CNS = tested on: SNB-19 CNS
MOLT-4 leukemia = tested on: MOLT-4 leukemia
PC-3 prostate = tested on: PC-3 prostate
HS 578T breast = tested on: HS 578T breast
UACC-62 melanoma = tested on: UACC-62 melanoma
OVCAR-3 ovarian = tested on: OVCAR-3 ovarian
RPMI-8226 leukemia = tested on: RPMI-8226 leukemia
NCI-H226 lung = tested on: NCI-H226 lung
HCT-116 colon = tested on: HCT-116 colon
K-562 leukemia = tested on: K-562 leukemia
MALME-3M melanoma = tested on: MALME-3M melanoma
U251 CNS = tested on: U251 CNS
LOX IMVI melanoma = tested on: LOX IMVI melanoma
UO-31 renal = tested on: UO-31 renal
BT-549 breast = tested on: BT-549 breast
SF-295 CNS = tested on: SF-295 CNS
UACC-257 melanoma = tested on: UACC-257 melanoma
HCT-15 colon = tested on: HCT-15 colon
HT29 colon = tested on: HT29 colon
SK-MEL-5 melanoma = tested on: SK-MEL-5 melanoma
SR leukemia = tested on: SR leukemia
M14 melanoma = tested on: M14 melanoma
A549 NSCLC = tested on: A549 NSCLC
HL-60(TB) leukemia = tested on: HL-60(TB) leukemia
HOP-92 NSCLC = tested on: HOP-92 NSCLC
SF-539 CNS = tested on: SF-539 CNS
SN12C renal = tested on: SN12C renal
NCI-H23 lung = tested on: NCI-H23 lung
DU-145 prostate = tested on: DU-145 prostate
NCI-H460 lung = tested on: NCI-H460 lung
SK-MEL-2 melanoma = tested on: SK-MEL-2 melanoma

Measured: TGI

CCOC(=O)Nn1c(C)nnc1CC#N
> 100 µM: all assays above
